Several values for one entry are separate records, joined by “and”; a condition that tells them apart may be missing. Identical values can stand only once.
O=C(C(F)(F)C(F)(F)F)C(F)(C(F)(F)F)C(F)(F)F [dodecafluoro-2-methylpentan-3-one]
Conditions | thermal conductivity
359.78 K, 24942 kPa, Liquid, transient hot wire | 0.06009 W/m/K
359.79 K, 91 kPa, Gas, transient hot wire | 0.01762 W/m/K
359.79 K, 92 kPa, Gas, transient hot wire | 0.01704 W/m/K
359.83 K, 255 kPa, Gas, transient hot wire | 0.01639 W/m/K and 0.01638 W/m/K
359.85 K, 7097 kPa, Liquid, transient hot wire | 0.05177 W/m/K
359.85 K, 7099 kPa, Liquid, transient hot wire | 0.05171 W/m/K
359.89 K, 18005 kPa, Liquid, transient hot wire | 0.05715 W/m/K
359.9 K, 18006 kPa, Liquid, transient hot wire | 0.05719 W/m/K
359.92 K, 186 kPa, Gas, transient hot wire | 0.01654 W/m/K and 0.01651 W/m/K
359.92 K, 3418 kPa, Liquid, transient hot wire | 0.04946 W/m/K
359.93 K, 3420 kPa, Liquid, transient hot wire | 0.04957 W/m/K
359.99 K, 11963 kPa, Liquid, transient hot wire | 0.05432 W/m/K
360 K, 26 kPa, Gas, transient hot wire | 0.01679 W/m/K
360.01 K, 26 kPa, Gas, transient hot wire | 0.01682 W/m/K
360.01 K, 11965 kPa, Liquid, transient hot wire | 0.05404 W/m/K
360.03 K, 353 kPa, Liquid, transient hot wire | 0.0473 W/m/K
360.04 K, 353 kPa, Liquid, transient hot wire | 0.0473 W/m/K
360.05 K, 352 kPa, Liquid, transient hot wire | 0.04729 W/m/K and 0.0475 W/m/K
360.09 K, 92 kPa, Gas, transient hot wire | 0.01711 W/m/K and 0.01617 W/m/K
360.11 K, 7096 kPa, Liquid, transient hot wire | 0.05168 W/m/K
360.11 K, 7097 kPa, Liquid, transient hot wire | 0.0517 W/m/K
360.19 K, 3417 kPa, Liquid, transient hot wire | 0.04945 W/m/K
360.19 K, 3421 kPa, Liquid, transient hot wire | 0.04947 W/m/K
360.32 K, 353 kPa, Liquid, transient hot wire | 0.0473 W/m/K
360.33 K, 352 kPa, Liquid, transient hot wire | 0.0473 W/m/K and 0.04729 W/m/K
360.33 K, 353 kPa, Liquid, transient hot wire | 0.04728 W/m/K
360.34 K, 26 kPa, Gas, transient hot wire | 0.01682 W/m/K and 0.01675 W/m/K
373.92 K, 307 kPa, Gas, hot wire | 0.01816 W/m/K
373.92 K, 308 kPa, Gas, hot wire | 0.01812 W/m/K
373.97 K, 206 kPa, Gas, hot wire | 0.01727 W/m/K
373.97 K, 207 kPa, Gas, hot wire | 0.0173 W/m/K
374 K, 102 kPa, Gas, hot wire | 0.01713 W/m/K and 0.01722 W/m/K
374.03 K, 306 kPa, Gas, hot wire | 0.01829 W/m/K and 0.01823 W/m/K
374.08 K, 25 kPa, Gas, hot wire | 0.01652 W/m/K and 0.01647 W/m/K
374.1 K, 205 kPa, Gas, hot wire | 0.01731 W/m/K
374.1 K, 206 kPa, Gas, hot wire | 0.01733 W/m/K
374.14 K, 102 kPa, Gas, hot wire | 0.01694 W/m/K and 0.01695 W/m/K
374.15 K, 305 kPa, Gas, hot wire | 0.01837 W/m/K
374.17 K, 305 kPa, Gas, hot wire | 0.01816 W/m/K
374.21 K, 25 kPa, Gas, hot wire | 0.01648 W/m/K
374.22 K, 25 kPa, Gas, hot wire | 0.01645 W/m/K
374.23 K, 205 kPa, Gas, hot wire | 0.0174 W/m/K and 0.01741 W/m/K
374.28 K, 102 kPa, Gas, hot wire | 0.01696 W/m/K
374.28 K, 304 kPa, Gas, hot wire | 0.01841 W/m/K
374.28 K, 305 kPa, Gas, hot wire | 0.01852 W/m/K
374.29 K, 102 kPa, Gas, hot wire | 0.01693 W/m/K
374.35 K, 25 kPa, Gas, hot wire | 0.01656 W/m/K and 0.01653 W/m/K
374.36 K, 203 kPa, Gas, hot wire | 0.01755 W/m/K
374.37 K, 204 kPa, Gas, hot wire | 0.01751 W/m/K
374.42 K, 102 kPa, Gas, hot wire | 0.01695 W/m/K
374.42 K, 303 kPa, Gas, hot wire | 0.01848 W/m/K and 0.01842 W/m/K
374.43 K, 102 kPa, Gas, hot wire | 0.01693 W/m/K
374.49 K, 376 kPa, Gas, transient hot wire | 0.01734 W/m/K
374.5 K, 25 kPa, Gas, hot wire | 0.01656 W/m/K and 0.01659 W/m/K
374.5 K, 377 kPa, Gas, transient hot wire | 0.01734 W/m/K
374.51 K, 202 kPa, Gas, hot wire | 0.0176 W/m/K
374.51 K, 203 kPa, Gas, hot wire | 0.01762 W/m/K
374.52 K, 308 kPa, Gas, transient hot wire | 0.01738 W/m/K
374.53 K, 307 kPa, Gas, transient hot wire | 0.01737 W/m/K
374.58 K, 101 kPa, Gas, hot wire | 0.01698 W/m/K
374.59 K, 101 kPa, Gas, hot wire | 0.01691 W/m/K
374.59 K, 207 kPa, Gas, transient hot wire | 0.01758 W/m/K
374.6 K, 206 kPa, Gas, transient hot wire | 0.01761 W/m/K
374.66 K, 25 kPa, Gas, hot wire | 0.0166 W/m/K and 0.01657 W/m/K
374.69 K, 376 kPa, Gas, transient hot wire | 0.01733 W/m/K
374.7 K, 376 kPa, Gas, transient hot wire | 0.01734 W/m/K
374.74 K, 306 kPa, Gas, transient hot wire | 0.01741 W/m/K
374.81 K, 206 kPa, Gas, transient hot wire | 0.01763 W/m/K and 0.01767 W/m/K
374.92 K, 374 kPa, Gas, transient hot wire | 0.01739 W/m/K
374.92 K, 375 kPa, Gas, transient hot wire | 0.01742 W/m/K
374.97 K, 305 kPa, Gas, transient hot wire | 0.0175 W/m/K
374.97 K, 306 kPa, Gas, transient hot wire | 0.01752 W/m/K
375.05 K, 205 kPa, Gas, transient hot wire | 0.01769 W/m/K
375.15 K, 373 kPa, Gas, transient hot wire | 0.01743 W/m/K
375.15 K, 374 kPa, Gas, transient hot wire | 0.01735 W/m/K
375.2 K, 304 kPa, Gas, transient hot wire | 0.01738 W/m/K
375.21 K, 304 kPa, Gas, transient hot wire | 0.01741 W/m/K
375.3 K, 204 kPa, Gas, transient hot wire | 0.01791 W/m/K and 0.0176 W/m/K
375.4 K, 372 kPa, Gas, transient hot wire | 0.01754 W/m/K
375.4 K, 373 kPa, Gas, transient hot wire | 0.01755 W/m/K
375.47 K, 303 kPa, Gas, transient hot wire | 0.01756 W/m/K
375.48 K, 303 kPa, Gas, transient hot wire | 0.01757 W/m/K
375.57 K, 202 kPa, Gas, transient hot wire | 0.01755 W/m/K

Source: the NIST ThermoML archive (doi:10.1021/acs.jced.8b00132)
